According to ChEMBL document CHEMBL1201861, “Genomics of Drug Sensitity in Cancer screening data, Wellcome Trust Sanger Institute”:
pIC50: −log10 of the molar value.

Columns and labels:
Experiment in all cases: cells
Lu-65 = type: functional, cell-based, Homo sapiens; details: Homo sapiens, Lu-65
Description: SANGER: Inhibition of human LU-65 cell growth in a cell viability assay.

LXF-289 cell line = type: functional, cell-based; details: Homo sapiens
Description: SANGER: Inhibition of human LXF-289 cell growth in a cell viability assay.

NCI-H747 = type: functional, cell-based, Homo sapiens; details: Homo sapiens, NCI-H747
Description: SANGER: Inhibition of human NCI-H747 cell growth in a cell viability assay.

NCI-N87 = type: functional, cell-based; details: Homo sapiens
Description: SANGER: Inhibition of human NCI-N87 cell growth in a cell viability assay.

SW872 = type: functional, cell-based, Homo sapiens; details: Homo sapiens, SW872
Description: SANGER: Inhibition of human SW872 cell growth in a cell viability assay.

COLO-800 = type: functional, cell-based, Homo sapiens; details: Homo sapiens, COLO-800
Description: SANGER: Inhibition of human COLO-800 cell growth in a cell viability assay.

COLO-824 = type: functional, cell-based, Homo sapiens; details: Homo sapiens, COLO-824
Description: SANGER: Inhibition of human COLO-824 cell growth in a cell viability assay.

COR-L88 = type: functional, cell-based, Homo sapiens; details: Homo sapiens, COR-L88
Description: SANGER: Inhibition of human COR-L88 cell growth in a cell viability assay.

CW-2 = type: functional, cell-based, Homo sapiens; details: Homo sapiens, CW-2
Description: SANGER: Inhibition of human CW-2 cell growth in a cell viability assay.

DB = type: functional, cell-based, Homo sapiens; details: Homo sapiens, DB
Description: SANGER: Inhibition of human DB cell growth in a cell viability assay.

ES7 = type: functional, cell-based, Homo sapiens; details: Homo sapiens, ES7
Description: SANGER: Inhibition of human ES7 cell growth in a cell viability assay.

EW-11 = type: functional, cell-based, Homo sapiens; details: Homo sapiens, EW-11
Description: SANGER: Inhibition of human EW-11 cell growth in a cell viability assay.

EW-13 = type: functional, cell-based, Homo sapiens; details: Homo sapiens, EW-13; read-out: IC50
Description: SANGER: Inhibition of human EW-13 cell growth in a cell viability assay.

GI-ME-N = type: functional, cell-based, Homo sapiens; details: Homo sapiens, GI-ME-N
Description: SANGER: Inhibition of human GI-ME-N cell growth in a cell viability assay.

GOTO = type: functional, cell-based, Homo sapiens; details: Homo sapiens, GOTO
Description: SANGER: Inhibition of human GOTO cell growth in a cell viability assay.

GR-ST = type: functional, cell-based, Homo sapiens; details: Homo sapiens, GR-ST
Description: SANGER: Inhibition of human GR-ST cell growth in a cell viability assay.

HCC2218 = type: functional, cell-based, Homo sapiens; details: Homo sapiens, HCC2218
Description: SANGER: Inhibition of human HCC2218 cell growth in a cell viability assay.

HCE-T = type: functional, cell-based, Homo sapiens; details: Homo sapiens, HCE-T
Description: SANGER: Inhibition of human HCE-T cell growth in a cell viability assay.

HD-MY-Z = type: functional, cell-based, Homo sapiens; details: Homo sapiens, HD-MY-Z
Description: SANGER: Inhibition of human HD-MY-Z cell growth in a cell viability assay.

HH = type: functional, cell-based, Homo sapiens; details: Homo sapiens, HH
Description: SANGER: Inhibition of human HH cell growth in a cell viability assay.

HT-144 = type: functional, cell-based, Homo sapiens; details: Homo sapiens, HT-144
Description: SANGER: Inhibition of human HT-144 cell growth in a cell viability assay.

K562 = type: functional, cell-based, Homo sapiens; details: Homo sapiens, K562
Description: SANGER: Inhibition of human K-562 cell growth in a cell viability assay.

KM-H2 = type: functional, cell-based, Homo sapiens; details: Homo sapiens, KM-H2
Description: SANGER: Inhibition of human KM-H2 cell growth in a cell viability assay.

KNS-42 = type: functional, cell-based; details: Homo sapiens
Description: SANGER: Inhibition of human KNS-42 cell growth in a cell viability assay.

KP-N-YS = type: functional, cell-based, Homo sapiens; details: Homo sapiens, KP-N-YS
Description: SANGER: Inhibition of human KP-N-YS cell growth in a cell viability assay.

LB2241-RCC = type: functional, cell-based, Homo sapiens; details: Homo sapiens, LB2241-RCC
Description: SANGER: Inhibition of human LB2241-RCC cell growth in a cell viability assay.

MHH-NB-11 = type: functional, cell-based, Homo sapiens; details: Homo sapiens, MHH-NB-11
Description: SANGER: Inhibition of human MHH-NB-11 cell growth in a cell viability assay.

MLMA = type: functional, cell-based, Homo sapiens; details: Homo sapiens, MLMA
Description: SANGER: Inhibition of human MLMA cell growth in a cell viability assay.

MPP-89 = type: functional, cell-based, Homo sapiens; details: Homo sapiens, MPP-89
Description: SANGER: Inhibition of human MPP-89 cell growth in a cell viability assay.

MSTO-211H = type: functional, cell-based, Homo sapiens; details: Homo sapiens, MSTO-211H
Description: SANGER: Inhibition of human MSTO-211H cell growth in a cell viability assay.

NB5 = type: functional, cell-based, Homo sapiens; details: Homo sapiens, NB5
Description: SANGER: Inhibition of human NB5 cell growth in a cell viability assay.

NCI-H1304 = type: functional, cell-based, Homo sapiens; details: Homo sapiens, NCI-H1304
Description: SANGER: Inhibition of human NCI-H1304 cell growth in a cell viability assay.

NCI-H209 = type: functional, cell-based, Homo sapiens; details: Homo sapiens, NCI-H209
Description: SANGER: Inhibition of human NCI-H209 cell growth in a cell viability assay.

NCI-H23 = type: functional, cell-based, Homo sapiens; details: Homo sapiens, NCI-H23
Description: SANGER: Inhibition of human NCI-H23 cell growth in a cell viability assay.

NCI-H446 = type: functional, cell-based, Homo sapiens; details: Homo sapiens, NCI-H446
Description: SANGER: Inhibition of human NCI-H446 cell growth in a cell viability assay.

SNU1 = type: functional, cell-based, Homo sapiens; details: Homo sapiens, SNU1
Description: SANGER: Inhibition of human NCI-SNU-1 cell growth in a cell viability assay.

SNU-5 = type: functional, cell-based, Homo sapiens; details: Homo sapiens, SNU-5
Description: SANGER: Inhibition of human NCI-SNU-5 cell growth in a cell viability assay.

NH-12 = type: functional, cell-based, Homo sapiens; details: Homo sapiens, NH-12
Description: SANGER: Inhibition of human NH-12 cell growth in a cell viability assay.

OMC-1 = type: functional, cell-based, Homo sapiens; details: Homo sapiens, OMC-1
Description: SANGER: Inhibition of human OMC-1 cell growth in a cell viability assay.

OS-RC-2 = type: functional, cell-based, Homo sapiens; details: Homo sapiens, OS-RC-2
Description: SANGER: Inhibition of human OS-RC-2 cell growth in a cell viability assay.

RCC10RGB = type: functional, cell-based, Homo sapiens; details: Homo sapiens, RCC10RGB
Description: SANGER: Inhibition of human RCC10RGB cell growth in a cell viability assay.

SBC-1 = type: functional, cell-based, Homo sapiens; details: Homo sapiens, SBC-1
Description: SANGER: Inhibition of human SBC-1 cell growth in a cell viability assay.

SF-268 = type: functional, cell-based, Homo sapiens; details: Homo sapiens, SF-268
Description: SANGER: Inhibition of human SF268 cell growth in a cell viability assay.

SJSA-1 = type: functional, cell-based, Homo sapiens; details: Homo sapiens, SJSA-1
Description: SANGER: Inhibition of human SJSA-1 cell growth in a cell viability assay.

SK-MEL-2 = type: functional, cell-based, Homo sapiens; details: Homo sapiens, SK-MEL-2
Description: SANGER: Inhibition of human SK-MEL-2 cell growth in a cell viability assay.

ALL-PO = type: functional, cell-based, Homo sapiens; details: Homo sapiens, ALL-PO
Description: SANGER: Inhibition of human ALL-PO cell growth in a cell viability assay.

Becker = type: functional, cell-based, Homo sapiens; details: Homo sapiens, Becker
Description: SANGER: Inhibition of human Becker cell growth in a cell viability assay.

CGTH-W-1 = type: functional, cell-based, Homo sapiens; details: Homo sapiens, CGTH-W-1
Description: SANGER: Inhibition of human CGTH-W-1 cell growth in a cell viability assay.

NCI-H1838 = type: functional, cell-based, Homo sapiens; details: Homo sapiens, NCI-H1838
Description: SANGER: Inhibition of human NCI-H1838 cell growth in a cell viability assay.

## CO[C@@H]1[C@H](N(C)C(=O)c2ccccc2)C[C@H]2O[C@]1(C)n1c3ccccc3c3c4c(c5c6ccccc6n2c5c31)C(=O)NC4 [MIDOSTAURIN]
Lu-65
  pIC50: < 6.29
LXF-289 cell line
  pIC50: 6.48
NCI-H747
  pIC50: < 6.29
NCI-N87
  pIC50: < 6.29
SW872
  pIC50: < 6.29

## NC1(c2ccc(-c3nc4ccn5c(=O)[nH]nc5c4cc3-c3ccccc3)cc2)CCC1 [MK-2206]
COLO-800
  pIC50: < 5.40
COLO-824
  pIC50: < 5.40
COR-L88
  pIC50: < 5.40
CW-2
  pIC50: < 5.40
DB
  pIC50: < 5.40
ES7
  pIC50: < 5.40
EW-11
  pIC50: < 5.40
EW-13
  pIC50: < 5.40
GI-ME-N
  pIC50: < 5.40
GOTO
  pIC50: < 5.40
GR-ST
  pIC50: 5.52
HCC2218
  pIC50: 5.77
HCE-T
  pIC50: < 5.40
HD-MY-Z
  pIC50: < 5.40
HH
  pIC50: 6.52
HT-144
  pIC50: < 5.40
K562
  pIC50: < 5.40
KM-H2
  pIC50: < 5.40
KNS-42
  pIC50: < 5.40
KP-N-YS
  pIC50: < 5.40
LB2241-RCC
  pIC50: 6.00
Lu-65
  pIC50: < 5.40
LXF-289 cell line
  pIC50: 5.93
MHH-NB-11
  pIC50: < 5.40
MLMA
  pIC50: < 5.40
MPP-89
  pIC50: < 5.40
MSTO-211H
  pIC50: < 5.40
NB5
  pIC50: < 5.40
NCI-H1304
  pIC50: < 5.40
NCI-H209
  pIC50: < 5.40
NCI-H23
  pIC50: < 5.40
NCI-H446
  pIC50: < 5.40
NCI-H747
  pIC50: 5.49
NCI-N87
  pIC50: < 5.40
SNU1
  pIC50: < 5.40
SNU-5
  pIC50: < 5.40
NH-12
  pIC50: < 5.40
OMC-1
  pIC50: 5.76
OS-RC-2
  pIC50: 5.51
RCC10RGB
  pIC50: < 5.40
SBC-1
  pIC50: 6.36
SF-268
  pIC50: < 5.40
SJSA-1
  pIC50: < 5.40
SK-MEL-2
  pIC50: < 5.40
SW872
  pIC50: < 5.40
ALL-PO
  pIC50: < 5.40
Becker
  pIC50: < 5.40
CGTH-W-1
  pIC50: < 5.40

## CS(=O)(=O)N1CCN(Cc2cc3nc(-c4cccc5[nH]ncc45)nc(N4CCOCC4)c3s2)CC1 [PICTILISIB]
COLO-800
  pIC50: < 5.40
COLO-824
  pIC50: < 5.40
CW-2
  pIC50: < 5.40
DB
  pIC50: < 5.40
ES7
  pIC50: 6.47
EW-11
  pIC50: < 5.40
EW-13
  pIC50: < 5.40
GI-ME-N
  pIC50: < 5.40
GOTO
  pIC50: < 5.40
GR-ST
  pIC50: < 5.40
HCE-T
  pIC50: < 5.40
HD-MY-Z
  pIC50: < 5.40
HH
  pIC50: 6.95
HT-144
  pIC50: < 5.40
K562
  pIC50: < 5.40
KM-H2
  pIC50: < 5.40
KNS-42
  pIC50: < 5.40
KP-N-YS
  pIC50: < 5.40
LB2241-RCC
  pIC50: 6.52
LXF-289 cell line
  pIC50: 6.35
MHH-NB-11
  pIC50: < 5.40
MLMA
  pIC50: < 5.40
MPP-89
  pIC50: < 5.40
MSTO-211H
  pIC50: < 5.40
NB5
  pIC50: 6.02
NCI-H1304
  pIC50: < 5.40
NCI-H1838
  pIC50: < 5.40
NCI-H23
  pIC50: < 5.40
NCI-H446
  pIC50: < 5.40
NCI-H747
  pIC50: < 5.40
NCI-N87
  pIC50: 5.67
SNU1
  pIC50: < 5.40
NH-12
  pIC50: 5.69
OMC-1
  pIC50: 6.12
OS-RC-2
  pIC50: < 5.40
RCC10RGB
  pIC50: < 5.40
SF-268
  pIC50: < 5.40
SJSA-1
  pIC50: 5.43
SK-MEL-2
  pIC50: < 5.40
SW872
  pIC50: 6.14
ALL-PO
  pIC50: < 5.40
Becker
  pIC50: 5.50
CGTH-W-1
  pIC50: < 5.40
